Results taken from US10138238B2, “Pesticidally active polycyclic derivatives with sulfur containing substituents” (Syngenta Participations AG, priority 2015, dated 2018).

What was measured:
Type in all cases: in vivo
[1] = tested on: Plutella xylostella (Diamond Back Moth); assay: Example B6: Plutella xylostella, artificial diet, L2 larvae; conditions: 120 h, application rate of 200 ppm, 5 days after infestation, read-out: effect in at least one of the two categories (mortality or growth inhibition)
Procedure: (§1) 24-well microtiter plates with artificial diet were treated with aqueous test solutions prepared from 10'000 ppm DMSO stock solutions by pipetting. After drying, the plates were infested with L2 larvae (10 to 15 per well). The samples were assessed for mortality and growth inhibition in comparison to untreated samples 5 days after infestation. The following compounds gave an effect of at least 80% in at least one of the two categories (mortality or growth inhibition) at an application rate of 200 ppm: P1, P2, P3, P4, P6, P8, P9, P10, P11, P12, P13, P14 and P15.

[2] = tested on: Plutella xylostella (Diamond black moth); assay: Example B13: Breakpoint (BP80) against Plutella xylostella; conditions: lowest concentration which gives 80% larval mortality; larval feeding/contact
Procedure: as §1
(§2) Insecticidal action against Diabrotica balteata (Corn root worm), Plutella xylostella (Diamond black moth), and Spodoptera littoralis (Egyptian cotton leaf worm). The tests were carried out as described in biological examples B2, B6 and B7, respectively, with the larval feeding/contact activity being reported as Breakpoint (BP80) values in parts per million (i.e. the lowest concentration which gives 80% larval mortality).

[3] = tested on: Spodoptera littoralis (Egyptian Cotton Leaf Worm); assay: Example B7: Spodoptera littoralis, cotton leaf discs, L1 larvae; conditions: foliar, 72 h, application rate of 200 ppm, 3 days after infestation
Procedure: (§3) Cotton leaf discs were placed onto agar in 24-well microtiter plates and sprayed with aqueous test solutions prepared from 10'000 ppm DMSO stock solutions. After drying the leaf discs were infested with five L1 larvae. The samples were assessed for mortality, anti-feeding effect, and growth inhibition in comparison to untreated samples 3 days after infestation. Control of Spodoptera littoralis by a test sample is given when at least one of the categories mortality, anti-feedant effect, and growth inhibition is higher than the untreated sample.

[4] = tested on: Diabrotica balteata (Corn Root Worm); assay: Example B13: Breakpoint (BP80) against Diabrotica balteata; conditions: lowest concentration which gives 80% larval mortality; larval feeding/contact
Procedure: (§4) Maize sprouts placed onto an agar layer in 24-well microtiter plates were treated with aqueous test solutions prepared from 10'000 ppm DMSO stock solutions by spraying. After drying, the plates were infested with L2 larvae (6 to 10 per well). The samples were assessed for mortality and growth inhibition in comparison to untreated samples 4 days after infestation. The following compounds gave an effect of at least 80% in at least one of the two categories (mortality or growth inhibition) at an application rate of 200 ppm: P1, P2, P3, P4, P5, P6, P7, P8, P9, P10, P11, P12, P13, P14, and P15.
as §2

[5] = tested on: Euschistus heros (Neotropical Brown Stink Bug); assay: Example B3: Euschistus heros, soybean leaves, N2 nymphs; conditions: 120 h, application rate of 200 ppm, 5 days after infestation, read-out: effect in at least one of the two categories (mortality or growth inhibition)
Procedure: Soybean leaves on agar in 24-well microtiter plates were sprayed with aqueous test solutions prepared from 10'000 ppm DMSO stock solutions. After drying the leaves were infested with N2 nymphs. The samples were assessed for mortality and growth inhibition in comparison to untreated samples 5 days after infestation. The following compounds gave an effect of at least 80% in at least one of the two categories (mortality or growth inhibition) at an application rate of 200 ppm: • P1, P3, P8, P9, P10, P13, P14, and P15

[6] = tested on: Spodoptera littoralis (Egyptian Cotton Leaf Worm); assay: Example B13: Breakpoint (BP80) against Spodoptera littoralis; conditions: lowest concentration which gives 80% larval mortality; larval feeding/contact
Procedure: as §3, §2

[7] = tested on: Diabrotica balteata (Corn Root Worm); assay: Example B2: Diabrotica balteata, maize sprouts, L2 larvae; conditions: 96 h, application rate of 200 ppm, 4 days after infestation, read-out: effect in at least one of the two categories (mortality or growth inhibition)
Procedure: as §4

[8] = tested on: Diabrotica balteata (Corn Root Worm); assay: Example B14: Breakpoint (BP80) against Diabrotica balteata; conditions: lowest concentration which gives 80% larval mortality; Table B14
Procedure: as §4
Insecticidal action against Diabrotica balteata (Corn root worm). The test were carried out as described in biological example B6 with the larval feeding contact activity being reported as Breakpoint (BP80) values in parts per million (i.e. the lowest concentration which gives 80% larval mortality).

[9] = tested on: Bemisia tabaci (Cotton White Fly); assay: Example B1: Bemisia tabaci feeding/contact activity; conditions: 144 h, application rate of 200 ppm, adult white flies, 6 days after incubation
Procedure: Cotton leaf discs were placed on agar in 24-well microtiter plates and sprayed with aqueous test solutions prepared from 10'000 ppm DMSO stock solutions. After drying the leaf discs were infested with adult white flies. The samples were checked for mortality 6 days after incubation.

[10] = tested on: Spodoptera littoralis (Egyptian Cotton Leaf Worm); assay: Example B8: Spodoptera littoralis systemic activity; conditions: 144 h, test rate of 12.5 ppm, lettuce, 6 days after infestation, read-out: effect in at least one of the three categories (mortality, anti-feeding, or growth inhibition)
Text: Test compounds were applied by pipette from 10'000 ppm DMSO stock solutions into 24-well plates and mixed with agar. Lettuce seeds were placed onto the agar and the multi well plate was closed by another plate which contained also agar. After 7 days the compound was absorbed by the roots and the lettuce grew into the lid plate. The lettuce leaves were then cut off into the lid plate. Spodoptera eggs were pipetted through a plastic stencil onto a humid gel blotting paper and the lid plate was closed with it. The samples were assessed for mortality, anti-feedant effect and growth inhibition in comparison to untreated samples 6 days after infestation. The following compounds gave an effect of at least 80% in at least one of the three categories (mortality, anti-feeding, or growth inhibition) at a test rate of 12.5 ppm: • P10, P13, P14 and P15.

[11] = tested on: Myzus persicae (Green Peach Aphid); assay: Example B4: Myzus persicae feeding/contact activity; conditions: 144 h, application rate of 200 ppm, 6 days after infestation
Procedure: Sunflower leaf discs were placed onto agar in a 24-well microtiter plate and sprayed with aqueous test solutions prepared from 10'000 ppm DMSO stock solutions. After drying, the leaf discs were infested with an aphid population of mixed ages. The samples were assessed for mortality 6 days after infestation.

[12] = tested on: Tetranychus urticae (Two-Spotted Spider Mite); assay: Example B9: Tetranychus urticae feeding/contact activity; conditions: 192 h, application rate of 200 ppm, mixed population (mobile stages), 8 days after infestation, read-out: mortality
Procedure: Bean leaf discs on agar in 24-well microtiter plates were sprayed with aqueous test solutions prepared from 10'000 ppm DMSO stock solutions. After drying the leaf discs were infested with a mite population of mixed ages. The samples were assessed for mortality on mixed population (mobile stages) 8 days after infestation.

SMILES: CCS(=O)(=O)c1ccc(-c2ccc(Cl)cc2)nc1-c1nc2cc(C(F)(F)F)ncc2n1C [Compound P1, 2-[6-(4-chlorophenyl)-3-ethylsulfonyl-2-pyridyl]-3-methyl-6-(trifluoromethyl)imidazo[4,5-c]pyridine]
- percent effect (mortality or growth inhibition) at 200 ppm [1]: ≥ 80%
- BP80 Values Plutella xylostella [2]: 12 ppm
- percent control (mortality, anti-feedant effect or growth inhibition) at 200 ppm [3]: ≥ 80%
- BP80 Values Diabrotica balteata [4]: 3 ppm
- percent effect (mortality or growth inhibition) at 200 ppm [5]: ≥ 80%
- BP80 Values Spodoptera littoralis [6]: 12 ppm
- percent effect (mortality or growth inhibition) at 200 ppm [7]: ≥ 80%

SMILES: CCS(=O)(=O)c1ccc(/C=C/c2ccccc2C(F)(F)F)nc1-c1nc2cc(C(F)(F)F)ncc2n1C [Compound P2, 2-[3-ethylsulfonyl-6-[(E)-2-[2-(trifluoromethyl)phenyl]vinyl]-2-pyridyl]-3-methyl-6-(trifluoromethyl)imidazo[4,5-c]pyridine]
- percent effect (mortality or growth inhibition) at 200 ppm [1]: ≥ 80%
- percent control (mortality, anti-feedant effect or growth inhibition) at 200 ppm [3]: ≥ 80%
- percent effect (mortality or growth inhibition) at 200 ppm [7]: ≥ 80%

SMILES: CCS(=O)(=O)c1cc(C(F)(F)F)c(-c2ccc(C(F)(F)F)cc2)nc1-c1nc2cc(C(F)(F)F)ncc2n1C [Compound P4, 2-[3-ethylsulfonyl-5-(trifluoromethyl)-6-[4-(trifluoromethyl)phenyl]-2-pyridyl]-3-methyl-6-(trifluoromethyl)imidazo[4,5-c]pyridine]
- percent effect (mortality or growth inhibition) at 200 ppm [1]: ≥ 80%
- percent control (mortality, anti-feedant effect or growth inhibition) at 200 ppm [3]: ≥ 80%
- BP80 Values Diabrotica balteata [8]: 10 ppm
- percent effect (mortality or growth inhibition) at 200 ppm [7]: ≥ 80%

SMILES: CCS(=O)(=O)c1cc(C(F)(F)F)c(-c2cccc(C(F)(F)F)c2)nc1-c1nc2cc(C(F)(F)F)ncc2n1C [Compound P5]
- percent control (mortality, anti-feedant effect or growth inhibition) at 200 ppm [3]: ≥ 80%
- BP80 Values Diabrotica balteata [8]: 10 ppm
- percent effect (mortality or growth inhibition) at 200 ppm [7]: ≥ 80%

SMILES: CCS(=O)(=O)c1cc(C(F)(F)F)c(-c2ccccc2Cl)nc1-c1nc2cc(C(F)(F)F)ncc2n1C [Compound P6]
- percent effect (mortality or growth inhibition) at 200 ppm [1]: ≥ 80%
- percent control (mortality, anti-feedant effect or growth inhibition) at 200 ppm [3]: ≥ 80%
- percent effect (mortality or growth inhibition) at 200 ppm [7]: ≥ 80%

SMILES: CCS(=O)(=O)c1ccc(-c2cc(F)cc(F)c2)nc1-c1nc2cc(C(F)(F)F)ncc2n1C [Compound P8, 2-[6-(3,5-difluorophenyl)-3-ethylsulfonyl-2-pyridyl]-3-methyl-6-(trifluoromethyl)imidazo[4,5-c]pyridine]
- percent effect (mortality or growth inhibition) at 200 ppm [1]: ≥ 80%
- percent control (mortality, anti-feedant effect or growth inhibition) at 200 ppm [3]: ≥ 80%
- percent effect (mortality or growth inhibition) at 200 ppm [5]: ≥ 80%
- percent effect (mortality or growth inhibition) at 200 ppm [7]: ≥ 80%

SMILES: CCS(=O)(=O)c1ccc(-n2ccc(C(F)(F)F)n2)nc1-c1nc2cc(SC(F)(F)F)ncc2n1C [Compound P9, 2-[3-ethylsulfonyl-6-[3-(trifluoromethyl)pyrazol-1-yl]-2-pyridyl]-3-methyl-6-(trifluoromethylsulfanyl)imidazo[4,5-c]pyridine]
- percent effect (mortality or growth inhibition) at 200 ppm [1]: ≥ 80%
- percent control (mortality, anti-feedant effect or growth inhibition) at 200 ppm [3]: ≥ 80%
- mortality at 200 ppm [9]: ≥ 80%
- percent effect (mortality or growth inhibition) at 200 ppm [5]: ≥ 80%
- percent effect (mortality or growth inhibition) at 200 ppm [7]: ≥ 80%

SMILES: CCS(=O)(=O)c1ccc(-n2ccc(Cl)n2)nc1-c1nc2cc(SC(F)(F)F)ncc2n1C [Compound P11]
- percent effect (mortality or growth inhibition) at 200 ppm [1]: ≥ 80%
- percent control (mortality, anti-feedant effect or growth inhibition) at 200 ppm [3]: ≥ 80%
- percent effect (mortality or growth inhibition) at 200 ppm [7]: ≥ 80%

SMILES: CCS(=O)(=O)c1ccc(C2CC2)nc1-c1nc2cc(Br)ncc2n1C [Compound P12, 6-bromo-2-(6-cyclopropyl-3-ethylsulfonyl-2-pyridyl)-3-methyl-imidazo[4,5-c]pyridine]
- percent effect (mortality or growth inhibition) at 200 ppm [1]: ≥ 80%
- percent control (mortality, anti-feedant effect or growth inhibition) at 200 ppm [3]: ≥ 80%
- percent effect (mortality or growth inhibition) at 200 ppm [7]: ≥ 80%

SMILES: CCS(=O)(=O)c1ccc(C2CC2)nc1-c1nc2cc(SC(F)(F)F)ncc2n1C [Compound P13, 2-(6-cyclopropyl-3-ethylsulfonyl-2-pyridyl)-3-methyl-6-(trifluoromethylsulfanyl)imidazo[4,5-c]pyridine]
- percent effect (mortality or growth inhibition) at 200 ppm [1]: ≥ 80%
- percent effect (mortality, anti-feeding or growth inhibition) at 12.5 ppm [10]: ≥ 80%
- percent control (mortality, anti-feedant effect or growth inhibition) at 200 ppm [3]: ≥ 80%
- mortality at 200 ppm [11]: ≥ 80%
- mortality at 200 ppm [9]: ≥ 80%
- percent effect (mortality or growth inhibition) at 200 ppm [5]: ≥ 80%
- mortality at 200 ppm [12]: ≥ 80%
- percent effect (mortality or growth inhibition) at 200 ppm [7]: ≥ 80%

SMILES: CCS(=O)(=O)c1ccc(C2CC2)nc1-c1nc2cc(C(F)(F)F)nnc2n1C [Compound P14, 6-(6-cyclopropyl-3-ethylsulfonyl-2-pyridyl)-7-methyl-3-(trifluoromethyl)imidazo[4,5-c]pyridazine]
- percent effect (mortality or growth inhibition) at 200 ppm [1]: ≥ 80%
- percent effect (mortality, anti-feeding or growth inhibition) at 12.5 ppm [10]: ≥ 80%
- percent control (mortality, anti-feedant effect or growth inhibition) at 200 ppm [3]: ≥ 80%
- mortality at 200 ppm [11]: ≥ 80%
- mortality at 200 ppm [9]: ≥ 80%
- percent effect (mortality or growth inhibition) at 200 ppm [5]: ≥ 80%
- percent effect (mortality or growth inhibition) at 200 ppm [7]: ≥ 80%

SMILES: CCS(=O)(=O)c1ccc(C2CC2)nc1-c1nc2cc(C(F)(F)F)ncc2n1C [Compound P15, 2-(6-cyclopropyl-3-ethylsulfonyl-2-pyridyl)-3-methyl-6-(trifluoromethyl)imidazo[4,5-c]pyridine]
- percent effect (mortality or growth inhibition) at 200 ppm [1]: ≥ 80%
- percent effect (mortality, anti-feeding or growth inhibition) at 12.5 ppm [10]: ≥ 80%
- percent control (mortality, anti-feedant effect or growth inhibition) at 200 ppm [3]: ≥ 80%
- mortality at 200 ppm [11]: ≥ 80%
- percent effect (mortality or growth inhibition) at 200 ppm [5]: ≥ 80%
- percent effect (mortality or growth inhibition) at 200 ppm [7]: ≥ 80%

SMILES: CCS(=O)(=O)c1cc(C(F)(F)F)cnc1-c1nc2cc(C(F)(F)F)ncc2n1C [Compound V12.01, reference compound]
- BP80 Values Diabrotica balteata [8]: 16 ppm

SMILES: CCS(=O)(=O)c1cccnc1-c1nc2cc(C(F)(F)F)ncc2n1C [Compound V12.03, reference compound]
- BP80 Values Plutella xylostella [2]: 250 ppm
- BP80 Values Diabrotica balteata [4]: 16 ppm
- BP80 Values Spodoptera littoralis [6]: 250 ppm
